Reference: patent US20250186503A1, “METHODS AND COMBINATIONS FOR TREATMENT AND T CELL MODULATION” (Juno Therapeutics, Inc., priority 2018, published 2025)
Entries after “also recorded” stand apart in the source; their conditions may differ.

What was measured:
[1] = tested on: anti-CD19 CAR-expressing T cells; assay: 28-day serial stimulation of anti-CD19 CAR-expressing T cells; format: cell-based, human; design: long term product performance: dose or concentration left out as unconfirmed
Experimental: Cells were counted after each stimulation and cell doublings were calculated. […] Data represents mean+/−S.E.M of triplicated treatments from 3 donors. Each arrow represents a re-stimulation time point. […] Cells were counted after each stimulation and cell doublings were calculated. […] Data represents mean+/−S.E.M of triplicated treatments from three donors. Each arrow represents a re-stimulation time point.

CAR T cells = assay: Chronic stimulation assay rendering CAR T cells hypofunctional (concurrent or rescue treatment); format: cell-based, human; settings: exposure following chronic stimulation
Experimental: Anti-CD19 CAR-expressing T cells were subjected to chronic stimulation conditions by being incubated with plate-bound anti-idiotypic (anti-ID) antibody for a period of 5 or 6 days.

Aiolos = target: T1, Aiolos (Homo sapiens, UniProt Q96SW2+Q9UKT9); assay: Intracellular Aiolos expression in anti-CD19 CAR+ T cells stimulated with 1 μg/ml CAR-specific anti-idiotypic antibody; format: cell-based; settings: 10 to 10000 nM, overnight
T1 construct: assess intracellular levels of Ikaros and Aiolos in CD4+ CAR+ or CD8+ CAR+ cells; endogenous in cells; host or cells: primary human CD4+ and CD8+ T cells transduced with an anti-CD19 CAR (FMC63 scFv)
Experimental: (§1) Following overnight incubation, anti-CD19 CAR-expressing T cells were stained with antibodies and analyzed by flow cytometry to assess intracellular levels of Ikaros and Aiolos in the CD4+ CAR+ or CD8+ CAR+ cells, as measured by median fluorescence intensity (MFI).
as §1, with “in” for “in the”, “(MFI). Median fluorescence intensity (MFI) values for Ikaros and Aiolos were normalized and calculated as a percentage relative to vehicle control.” for “(MFI).”

[2] = tested on: anti-CD19 CAR-expressing T cells with K562.CD19 target cells; assay: Cytokine production of anti-CD19 CAR+ T cells incubated with K562.CD19 target cells; format: cell-based, human; settings: for cytokine production (IFN-γ, IL-2, TNF-α) compared to vehicle control: 24 hours, E:T ratios of 5:1 and 2.5:1, concentration-dependent
Experimental: (§2) Cytokine expression, target cell cytolysis and expression of surface markers of anti-CD19 CAR-expressing T cells were assessed.

K562.CD19 target cells = assay: Cytolytic function of anti-CD19 CAR+ T cells against K562.CD19 target cells (killing index); format: cell-based, human; settings: for cytolytic function of anti-CD19 CAR-expressing T cells: generally
Experimental: as §2
K562.CD19 target cells were transduced with NucLight Red to permit their tracking by microscopy. Cytolytic activity was assessed by measuring the loss of viable target cells over a period of five days, as determined by red fluorescent signal (using the IncuCyte® Live Cell Analysis System, Essen Bioscience).

[3] = tested on: anti-CD19 CAR-expressing T cells; assay: T cell surface marker expression after co-culture with K562.CD19 target cells; format: cell-based, human; settings: for expression of CD27 / expression of the other assessed activation markers / expression of CD45RO: 24 hours; for expression of CD45RO: all donors and E:T ratios; for expression of CD69 and LAG3: cells derived from donor 3
Experimental: as §2

[4] = tested on: anti-CD19 CAR-expressing T cells; assay: Surface marker expression after 4 days anti-idiotypic antibody stimulation; format: cell-based, human; settings: for surface markers CD25 and CD69: 4 days, some donor-derived cells, depending on stimulation; for expression of the surrogate marker for CAR expression: anti-idiotypic antibody 0.3 μg/ml; for expression of PD-1: cells generated from at least one donor
Experimental: Anti-CD19 CAR-expressing T cells compositions (containing CD4+ and CD8+ T cells combined at a 1:1 ratio) were generated substantially as described in Example 14. Approximately 1×10^5 CAR-expressing cells were added to wells of a 96-well plate that had been pre-coated with an anti-idiotypic antibody specific to the scFv of the anti-CD19 CAR-expressing T cells at concentrations of 0, 0.3, 3 and 30 μg/ml. […] Cytokine expression and expression of surface markers of anti-CD19 CAR-expressing T cells were assessed.
CAR-expressing T cells were stained for CD3, CD4, CD8 and the surrogate marker for CAR expression, and also for the following markers: CD25, PD-1, and CD69.

[5] = tested on: anti-CD19 CAR-expressing T cells with K562.CD19 cells; assay: Serial stimulation of anti-CD19 CAR+ T cells with irradiated K562.CD19 cells (surface markers, cytolytic activity, expansion); format: cell-based, human; settings: for CD25 and LAG3 expression: day 4, all three donors; for PD-1 expression: day 4 and day 28, both E:T ratios; for cytolytic activity after serial stimulation: day 24; for CCR7 expression: day 28; for cell doublings: 1000 nM
Experimental: Every 3-4 days (start of each new round), the cells were counted.
Expression of select surface markers was assessed on cells at day 4 (i.e., 4 days after the first stimulation) and day 28 (i.e., 4 days after the seventh stimulation). Specifically, harvested cells were analyzed by flow cytometry for CD3, CD4, CD8 and the surrogate marker for CAR expression, and also for the following surface markers: CD69, CD107a, PD-1, CD25, CD62L, CCR7, CD45RO, CD27, and LAG3.

RL tumor spheroids = assay: RL tumor spheroid model with anti-CD19 CAR T cells; format: cell-based; settings: Day 4; 1 μM Compound 1; 0.01 μM or 0.1 μM Compound 2
Experimental: Cytolytic activity was also assessed in a spheroid model. About 5,000 RL cells were plated 48 hours prior to addition of 5,000 anti-CD19 CAR T cells (1:1 E:T ratio).

[6] = tested on: anti-CD19 CAR-expressing T cells with K562.CD19 cells; assay: Serial stimulation of anti-CD19 CAR+ T cells with irradiated K562.CD19 cells (surface markers, cytolytic activity, expansion); format: cell-based, human; settings: CD4+ and CD8+ CAR-expressing T cells, all three donors
[7] = tested on: RPMI-8226 BCMA expressing target cells; assay: Anti-BCMA CAR T cells chronically stimulated with BCMA-conjugated beads in the presence of compound; rechallenge with RPMI-8226; format: cell-based; settings: for cytolytic activity of anti-BCMA CAR T cells / production of IFN-gamma, IL-2 or TNF-alpha: compound during long-term stimulation; for cytolytic activity of anti-BCMA CAR T cells: 0.3:1 E:T ratio; for production of IFN-gamma, IL-2 or TNF-alpha: 24 hours after plating; for viability and count of anti-BCMA CAR T cells: day 7, lenalidomide 1000 nM, Compound 2 0.1 nM, 1 nM or 10 nM
Experimental: Cryofrozen anti-BCMA CAR T cells, produced substantially as described in Example 1 and formulated at a 1:1 ratio of CD4+ and CD8+ T cells, were thawed. […] The cells were then incubated at 37° C., 5% CO2 for 7 days.
At day 7, anti-BCMA CAR cells of all the samples were counted using a cellometer machine and stained for flow cytometric analysis. Cells were stained with a viability dye and analyzed by flow cytometry.
Cytolytic activity was assessed using OPM-2 and RPMI-8226 BCMA expressing target cells transduced with NucLight Red, a red fluorescent protein detectable by microscopy, to allow for measurement of target cell death. Anti-BCMA CAR T cells that had been stimulated for 7 days with BCMA-conjugated beads in the presence of the compounds were co-cultured with RPMI-8226 target cells at a 0.3:1 (effector:target) or 1:1 ratio. Cultures were incubated at 37° C., 5% CO2, and images were taken every 2 hours over 5-7 days with an Essen IncuCyte Zoom live-cell analysis system to track NucLightRed-positive target cells.
For cytokine measurements, cell-free supernatants were collected from the cytolytic assay described above 24 hours after plating. Cytokine levels were measured using IFNg, IL-2, and TNFalpha Meso Scale Discovery cytokine kit (Mesoscale) according to manufacturer instructions. The data was analyzed using GraphPad Prism to calculate absolute changes in cytokine relative to the DMSO vehicle control.

[8] = 5:1 E:T ratio, high concentrations, Donor 2

T1 sequence (Q9UKT9 whole entry): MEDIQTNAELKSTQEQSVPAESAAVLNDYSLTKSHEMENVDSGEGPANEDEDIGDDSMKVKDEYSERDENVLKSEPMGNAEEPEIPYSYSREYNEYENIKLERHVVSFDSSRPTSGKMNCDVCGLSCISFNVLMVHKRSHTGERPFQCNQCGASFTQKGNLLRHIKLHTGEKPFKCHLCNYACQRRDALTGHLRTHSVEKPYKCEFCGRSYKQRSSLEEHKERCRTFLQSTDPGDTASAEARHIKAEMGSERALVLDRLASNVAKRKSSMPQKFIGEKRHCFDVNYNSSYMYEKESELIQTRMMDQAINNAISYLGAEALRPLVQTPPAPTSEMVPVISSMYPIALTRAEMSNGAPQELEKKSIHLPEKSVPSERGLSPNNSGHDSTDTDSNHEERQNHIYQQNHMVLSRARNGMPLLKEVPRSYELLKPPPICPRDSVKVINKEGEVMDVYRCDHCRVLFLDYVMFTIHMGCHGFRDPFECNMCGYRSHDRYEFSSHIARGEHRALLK
T1 sequence (Q96SW2 whole entry): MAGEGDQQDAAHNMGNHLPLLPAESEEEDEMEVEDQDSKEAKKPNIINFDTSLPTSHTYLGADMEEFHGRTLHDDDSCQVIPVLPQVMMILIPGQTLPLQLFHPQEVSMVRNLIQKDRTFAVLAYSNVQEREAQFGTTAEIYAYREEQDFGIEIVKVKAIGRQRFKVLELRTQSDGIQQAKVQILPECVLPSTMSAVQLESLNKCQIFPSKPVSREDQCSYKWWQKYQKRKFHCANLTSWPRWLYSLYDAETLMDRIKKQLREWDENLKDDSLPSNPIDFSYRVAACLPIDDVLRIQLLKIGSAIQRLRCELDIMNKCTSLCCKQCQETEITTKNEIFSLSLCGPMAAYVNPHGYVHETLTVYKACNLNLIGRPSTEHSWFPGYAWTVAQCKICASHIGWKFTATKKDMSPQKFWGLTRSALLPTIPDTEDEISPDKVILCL
T1 sequence (Q16531 whole entry partner): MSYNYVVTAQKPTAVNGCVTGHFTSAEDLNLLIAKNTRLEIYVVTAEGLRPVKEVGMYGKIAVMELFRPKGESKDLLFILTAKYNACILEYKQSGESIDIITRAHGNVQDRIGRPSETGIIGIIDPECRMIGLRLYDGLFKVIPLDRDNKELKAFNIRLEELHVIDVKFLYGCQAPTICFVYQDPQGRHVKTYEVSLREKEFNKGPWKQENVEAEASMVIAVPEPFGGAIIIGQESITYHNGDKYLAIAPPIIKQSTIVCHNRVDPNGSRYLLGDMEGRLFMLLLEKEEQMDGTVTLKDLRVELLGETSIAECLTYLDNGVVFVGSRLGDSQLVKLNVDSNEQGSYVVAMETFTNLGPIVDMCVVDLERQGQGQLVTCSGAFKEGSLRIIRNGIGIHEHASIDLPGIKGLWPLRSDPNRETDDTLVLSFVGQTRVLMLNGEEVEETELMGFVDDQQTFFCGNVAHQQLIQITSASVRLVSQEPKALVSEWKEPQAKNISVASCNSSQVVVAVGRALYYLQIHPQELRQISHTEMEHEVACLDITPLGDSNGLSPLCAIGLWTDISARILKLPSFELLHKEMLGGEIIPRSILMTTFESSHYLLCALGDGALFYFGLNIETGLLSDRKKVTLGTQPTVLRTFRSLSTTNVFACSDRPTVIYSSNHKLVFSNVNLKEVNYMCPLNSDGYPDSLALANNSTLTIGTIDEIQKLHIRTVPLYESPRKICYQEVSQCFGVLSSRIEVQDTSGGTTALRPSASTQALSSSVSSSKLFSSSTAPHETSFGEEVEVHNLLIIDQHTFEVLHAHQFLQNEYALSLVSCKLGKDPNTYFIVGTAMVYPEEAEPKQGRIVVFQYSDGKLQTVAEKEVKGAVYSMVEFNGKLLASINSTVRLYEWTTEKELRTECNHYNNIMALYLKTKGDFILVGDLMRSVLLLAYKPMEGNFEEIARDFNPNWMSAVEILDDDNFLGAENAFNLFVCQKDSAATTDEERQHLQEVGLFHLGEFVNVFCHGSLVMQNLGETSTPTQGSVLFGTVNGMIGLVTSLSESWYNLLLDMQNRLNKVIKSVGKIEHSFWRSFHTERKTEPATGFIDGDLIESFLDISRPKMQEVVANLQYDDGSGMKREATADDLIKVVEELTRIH

Row | Structure (SMILES) | activity/function of chronically stimulated, exhausted T cells (rescue) (CAR T cells) | intracellular Aiolos expression (Aiolos) | cytokine production (IFN-γ, IL-2, TNF-α) compared to vehicle control [2] | cytolytic activity (K562.CD19 target cells; 2.5:1 E:T ratio, some donors) | cytolytic activity (K562.CD19 target cells; [8]) | cytolytic function of anti-CD19 CAR-expressing T cells (K562.CD19 target cells) | expression of CD27 [3] | expression of the other assessed activation markers [3] | expression of CD45RO [3] | expression of CD69 and LAG3 [3] | surface markers CD25 and CD69 [4] | expression of the surrogate marker for CAR expression [4] | expression of PD-1 [4] | CD25 and LAG3 expression [5] | PD-1 expression ([5]; all donors) | cytolytic activity after serial stimulation [5] | CCR7 expression [5] | RL tumor spheroid sensitivity to compound (RL tumor spheroids) | expression of CD28 [6] | cytolytic activity of anti-BCMA CAR T cells [7] | also measured
1 | Cc1nc2cccc(N)c2c(=O)n1C1CCC(=O)NC1=O (stereo not drawn) [Compound 1, 3-(5-amino-2-methyl-4-oxo-4H-quinazolin-3-yl)-piperidine-2,6-dione] | recover activity or have their activity restored or partially restored; also recorded: rescue or restore T cell function | concentration dependent decrease | increased | slightly reduced cytolytic activity | slight but consistent increase | limited effect | downregulated in a concentration-dependent manner | remained unchanged | increased | increased in a concentration-dependent manner | increase | Increased expression | increased | upregulated | downregulated | increase the cytolytic activity | generally decreased | sensitive | decreased in a dose-dependent manner | – | long term product performance ([1]; higher concentrations): detrimental; long-term proliferative potential of CAR-expressing T cells ([1]; prolonged treatment, 10 or 100 nM): increase; cytokine production compared to lenalidomide at equivalent concentrations ([2]; across multiple conditions): greater cytokine production; cell counts of anti-CD19 CAR-expressing T cells ([5]; 10 nM and 100 nM, after 24 days): higher than the untreated controls for two out of three donors; number of doublings of CAR+ cells ([5]; 500 nM, rounds after 3-4 rounds of stimulation): lower than the untreated control groups
2 | O=C1CC[C@H](N2Cc3c(OCc4ccc(CN5CCOCC5)cc4)cccc3C2=O)C(=O)N1 [Compound 2, (S)-3-[4-(4-morpholin-4-ylmethyl-benzyloxy)-1-oxo-1,3-dihydro-isoindol-2-yl]-piperidine-2,6-dione] | rescue or restore T cell function | concentration dependent decrease | – | – | – | – | – | – | – | – | – | – | – | – | – | – | – | sensitive | – | increased cytolytic activity | production of IFN-gamma, IL-2 or TNF-alpha [7]: increased production; viability and count of anti-BCMA CAR T cells [7]: increased
3 | Nc1cccc2c1CN(C1CCC(=O)NC1=O)C2=O (stereo not drawn) [lenalidomide, 3-(4-amino-1-oxo-1,3-dihydro-2H-isoindol-2-yl)piperidine-2,6-dione] | rescue or restore T cell function | – | increased | slightly reduced cytolytic activity | slight but consistent increase | limited effect | downregulated in a concentration-dependent manner | remained unchanged | increased | not | increase | Increased expression | increased | upregulated | downregulated | increase the cytolytic activity | generally decreased | – | decreased in a dose-dependent manner | increased cytolytic activity | T cell potency activity compared with Compound 1 [1]: lower; CAR+ T cell counts ([5]; 100 nM): increased CAR+ T cell counts for two out of three donors; cell doublings ([5]; 2.5:1 E:T ratio, later rounds): lower cell doublings were only observed in two of the donors; cell doublings ([5]; 10:1 E:T ratio, after 3-4 rounds, all donors): decreased cell doublings; production of IFN-gamma, IL-2 or TNF-alpha [7]: increased production; viability and count of anti-BCMA CAR T cells [7]: increased
